Like-named read-outs stand apart in the source and are kept apart here.
Assays:
[1] = test system: epithelial carcinoma A431 cell line; experiment: MTT Cell Proliferation Assay, A431 cells; assay type: cell-based; conditions: for IC50: Homo sapiens; for MTT Assay IC50(A431/MDBK): ratio in parentheses: ratio MDBK IC50 / A431 IC50 (selectivity); for MTT Follow-up: ratio in parentheses: ratio MDBK/A431
Summary of the method: (§1)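 Each concentration ran in quadruplicate across duplicate plates, with compounds serially diluted in DMSO and delivered at 0.5% DMSO in 0.5% FBS medium for 3 days.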

EGFR = target: T1, EGFR (Homo sapiens, UniProt P00533); experiment: EGFR in-cell Western (ICW) screening protocol (EGFR inhibition assay); assay type: cell-based; parameters: ICW 1 / ICW 2 / ICW Avg: unit not given here; conditions: ICW assay; for ICW Avg: average of runs 1 and 2; for ICW 1: run 1; for ICW 2: run 2
T1 construct: host or cells: A431
T1 sequence (P00533 25-1210): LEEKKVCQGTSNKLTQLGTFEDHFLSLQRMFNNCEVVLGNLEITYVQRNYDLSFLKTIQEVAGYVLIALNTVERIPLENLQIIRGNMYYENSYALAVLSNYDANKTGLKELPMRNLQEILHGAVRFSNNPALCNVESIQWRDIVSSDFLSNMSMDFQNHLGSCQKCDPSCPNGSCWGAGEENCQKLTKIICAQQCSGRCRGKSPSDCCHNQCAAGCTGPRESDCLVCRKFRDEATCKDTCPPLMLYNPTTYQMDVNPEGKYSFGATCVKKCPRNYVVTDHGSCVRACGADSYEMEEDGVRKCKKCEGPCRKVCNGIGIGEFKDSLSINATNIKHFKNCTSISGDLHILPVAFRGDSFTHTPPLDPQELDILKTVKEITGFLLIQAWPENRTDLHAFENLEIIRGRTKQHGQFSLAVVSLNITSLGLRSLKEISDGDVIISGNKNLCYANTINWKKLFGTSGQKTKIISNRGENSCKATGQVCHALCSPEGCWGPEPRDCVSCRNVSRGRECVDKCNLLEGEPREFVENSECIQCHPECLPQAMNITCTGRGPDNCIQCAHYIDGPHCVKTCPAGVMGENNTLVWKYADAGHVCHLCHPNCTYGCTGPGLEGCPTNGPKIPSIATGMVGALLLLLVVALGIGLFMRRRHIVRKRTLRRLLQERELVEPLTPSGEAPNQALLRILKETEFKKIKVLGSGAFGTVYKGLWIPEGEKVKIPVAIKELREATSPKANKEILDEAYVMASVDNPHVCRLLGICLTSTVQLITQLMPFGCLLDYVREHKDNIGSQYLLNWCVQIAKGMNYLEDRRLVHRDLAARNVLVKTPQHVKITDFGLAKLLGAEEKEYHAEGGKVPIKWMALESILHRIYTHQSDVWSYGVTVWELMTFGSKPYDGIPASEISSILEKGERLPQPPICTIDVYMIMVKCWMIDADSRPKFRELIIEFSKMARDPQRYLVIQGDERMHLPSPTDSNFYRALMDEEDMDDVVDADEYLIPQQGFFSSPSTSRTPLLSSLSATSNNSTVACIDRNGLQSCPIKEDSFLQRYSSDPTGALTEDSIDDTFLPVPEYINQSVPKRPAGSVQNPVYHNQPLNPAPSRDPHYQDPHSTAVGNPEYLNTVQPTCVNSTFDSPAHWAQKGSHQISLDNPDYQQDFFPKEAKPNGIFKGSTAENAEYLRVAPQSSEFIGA
Summary of the method: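 In-cell Western read-out: fixed A431 cells were co-stained for total EGFR and phospho-EGFR (Tyr1173; some runs Tyr1045). Before fixation, cells were serum-starved for 2 h, exposed to compound for 4 h, then given EGF for 10 min, usually at 10 ng/ml final (6.6 or 12.5 ng/ml in some runs).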

MDBK line = experiment: MTT Cell Proliferation Assay, MDBK cells; assay type: cell-based, bovine; conditions: MDBK cells
Summary of the method: as §1

[2] = A-431, A431 cells, first value of cell, read-out: MTT Assay IC50(A431/MDBK): A431
[3] = Bos taurus, MDBK, second value of cell, read-out: MTT Assay IC50(A431/MDBK): MDBK
[4] = A-431, follow-up MTT, A431 cells, first value, read-out: MTT Follow-up: A431
[5] = Bos taurus, MDBK, follow-up MTT, second value, read-out: MTT Follow-up: MDBK

| SMILES | IC50 [1, 2] | MTT Assay IC50(A431/MDBK): ratio in parentheses [1] | ICW Avg (EGFR) | ICW 1 (EGFR) | ICW 2 (EGFR) | IC50 (MDBK line; [3]) | IC50 ([1]; A-431, A431 cells, normalized, read-out: MTT Assay IC50 (normalized): A431) | IC50 [1, 4] | MTT Follow-up: ratio in parentheses [1] | IC50 (MDBK line; Bos taurus, MDBK, normalized, read-out: MTT Assay IC50 (normalized): MDBK) | IC50 (MDBK line; [5]) | IC50 (MDBK line; second value of cell, read-out: MTT Assay IC50(A431/MDBK): MDBK) | MTT Assay IC50(A431/MDBK): A431 ([1]; A431 cells, first value of cell) |
| --- | --- | --- | --- | --- | --- | --- | --- | --- | --- | --- | --- | --- | --- |
| Cc1ccc2nc(Nc3nc(CSc4nc5ccccc5s4)cc(=O)[nH]3)nc(C)c2c1 [compound 11592] | 21.8 µM | 0.84 | 29.16 | 24.41 | 33.91 | 18.3 µM | – | – | – | – | – | – | – |
| Cc1ccc2nc(Nc3nc(=O)cc(-c4ccccc4)[nH]3)nc(C)c2c1 [compound 11601] | 1.29 µM | – | 56.08 | 58.11 | 54.06 | 2.62 µM | 0.738 µM | 3.67 µM | 13.23 | 2.61 µM | 48.6 µM | – | – |
| COC(=O)Cc1cc(=O)nc(Nc2nc(C)c3ccccc3n2)[nH]1 [compound 11609] | 36 µM | 0.68 | 27.23 | 28.83 | 25.63 | 24.3 µM | – | – | – | – | – | – | – |
| Cc1ccc2c(=O)nc(Nc3nc(C)cc(-c4ccccc4)n3)[nH]c2c1 [compound 11610] | 4.98 µM | – | 31.67 | 22.50 | 40.84 | 17.4 µM | – | – | – | – | – | – | – |
| COc1ccc2nc(Nc3nc(CSc4ccc(C)cc4)cc(=O)[nH]3)nc(C)c2c1 [compound 11617] | 6.01 µM | 3.28 | 29.18 | 27.71 | 30.66 | 19.7 µM | – | – | – | – | – | – | – |
| Cc1nc(Nc2nc(=O)cc(-c3ccccc3)[nH]2)nc2c(C)cccc12 [compound 11624] | 14 µM | 1.59 | 26.08 | 22.54 | 29.61 | 22.4 µM | – | – | – | – | – | – | – |
| Cc1cc(C)nc(Nc2nc(-c3ccccc3)c3ccc(Cl)cc3n2)n1 [compound 11636] | 26.8 µM | – | 62.56 | 61.28 | 63.84 | – | – | – | – | – | – | 14.7 µM | – |
| COc1cccc2c(C)nc(Nc3nc(-c4ccccc4)cc(=O)[nH]3)nc12 [compound 11741] | 2.44 µM | – | 68.05 | 66.55 | 69.55 | 2.44 µM | – | 51.5 µM | 1.01 | – | 51.9 µM | – | – |
| Cc1ccc2nc(Nc3nc(CSc4ncccn4)cc(=O)[nH]3)nc(C)c2c1 [compound 11751] | 9.88 µM | 0.64 | 25.51 | 25.87 | 25.14 | 6.31 µM | – | – | – | – | – | – | – |
| CCOc1cccc2c(C)nc(Nc3nc(CSc4ccc(C)cc4)cc(=O)[nH]3)nc12 [compound 11755] | – | – | 37.09 | 40.96 | 33.21 | – | – | 14.1 µM | 0.23 | – | 3.24 µM | – | non-convergent |
| COc1cccc2c(C)nc(Nc3nc(C(F)(F)F)cc(=O)[nH]3)nc12 [compound 11758] | 53.8 µM | – | 47.78 | 53.63 | 41.93 | 576 µM | – | – | – | – | – | – | – |
| Cc1ccc2c(C)nc(Nc3nc4c(c(-c5ccccc5)n3)CCCC4)nc2c1 [compound 11777] | 6.6 µM | 1.62 | 25.87 | 37.92 | 13.81 | 10.7 µM | – | – | – | – | – | – | – |
| Cc1nc(Nc2nc(CCC(C)C)cc(=O)[nH]2)nc2ccccc12 [compound 11792] | 5.36 µM | 2.53 | 30.56 | 28.62 | 32.50 | 13.6 µM | – | – | – | – | – | – | – |
| CCOC(=O)c1c(N)nc(Nc2nc(C)c3cc(C)ccc3n2)nc1-c1ccccc1 [compound 11812] | 14.7 µM | – | 56.84 | 51.90 | 61.77 | 31.6 µM | – | – | – | – | – | – | – |
| CCOC(=O)c1c(N)nc(Nc2nc(C)c3cc(C)c(C)cc3n2)nc1-c1ccccc1 [compound 11825] | 4.06 µM | – | 54.02 | 52.17 | 55.87 | 17.9 µM | – | – | – | – | – | – | – |
| Cc1cc(C)nc(Nc2nc(N)c3ccccc3n2)n1 [compound 11829] | 19.6 µM | – | 65.68 | 62.56 | 68.79 | 16.2 µM | – | – | – | – | – | – | – |
